These results are taken from PubChem BioAssay AID206 (DTP/NCI, 2004).

The assay has as its system nude mice, HT29 intrarenal xenograft, tumor weight T/C. Briefly: NCI In Vivo Anticancer Drug Screen. Data for tumor model HT29;CX-1 Human Adenocarcinoma (MER+) (intrarenal inoculation) in NU/NU Swiss (nude) mice. The settings on record: endpoint: mean tumor weight change, higher = larger tumour. In outline: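 Mice with transplanted tumors are dosed with compound while controls get vehicle only. Survival or tumor burden is then assessed per group, and the treated value is expressed relative to control.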

[1] abbreviates: dose: 37.5 mg/kg/injection, schedule: Q04DX004 (sc), vehicle: Klucel (hydroxypropylcellulose) (HPC).
Where [2] appears, read: dose: 75.0 mg/kg/injection, schedule: Q04DX004 (sc), vehicle: Klucel (hydroxypropylcellulose) (HPC).
[3] abbreviates: dose: 75.0 mg/kg/injection, schedule: Q04DX004 (sc), vehicle: saline with Tween-80.
Where [4] appears, read: dose: 150.0 mg/kg/injection, schedule: Q04DX004 (sc), vehicle: saline with Tween-80.

Inconclusive results are not listed.

As to `NC(=O)c1ncn(C2OC(CO)C(O)C2O)c1O` (stereo not drawn), the T/C reads like this: under setting [1], 76 % of control; under setting [2], 77 % of control; (dose: 150.0 mg/kg/injection, schedule: Q04DX004 (sc), vehicle: Klucel (hydroxypropylcellulose) (HPC)) 71 % of control; (dose: 300.0 mg/kg/injection, schedule: Q04DX004 (sc), vehicle: Klucel (hydroxypropylcellulose) (HPC)) 62 % of control.

Consider `O=C(Nc1ccc(C2=NCCN2)cc1)c1ccc(C(=O)Nc2ccc(C3=NCCN3)cc2)c(Cl)c1`, for which the T/C by setting is: (dose: 12.5 mg/kg/injection, schedule: Q01DX010 (sc), vehicle: water) 101 % of control; (dose: 25.0 mg/kg/injection, schedule: Q01DX010 (sc), vehicle: water) 61 % of control; (dose: 50.0 mg/kg/injection, schedule: Q01DX010 (sc), vehicle: water) 78 % of control.

As for `O=C1NC(O)c2ccccc2O1` (stereo not drawn), the T/C (dose: 100.0 mg/kg/injection, schedule: Q04DX004 (sc), vehicle: suspension in saline) was 68 % of control; the T/C (dose: 200.0 mg/kg/injection, schedule: Q04DX004 (sc), vehicle: suspension in saline) is 115 % of control; the T/C (dose: 400.0 mg/kg/injection, schedule: Q04DX004 (sc), vehicle: suspension in saline) was 50 % of control; the T/C (dose: 800.0 mg/kg/injection, schedule: Q04DX004 (sc), vehicle: suspension in saline) was 55 % of control.

On to `Cc1ccc(NCCN(C)C)c2c(=O)c3cc(O)ccc3sc12`, for which the T/C reads like this: (dose: 225.0 mg/kg/injection, schedule: Q04DX004 (sc), vehicle: Klucel (hydroxypropylcellulose) (HPC)) 81 % of control; (dose: 450.0 mg/kg/injection, schedule: Q04DX004 (sc), vehicle: Klucel (hydroxypropylcellulose) (HPC)) 64 % of control; (dose: 900.0 mg/kg/injection, schedule: Q04DX004 (sc), vehicle: Klucel (hydroxypropylcellulose) (HPC)) 99 % of control; (dose: 1800.0 mg/kg/injection, schedule: Q04DX004 (sc), vehicle: Klucel (hydroxypropylcellulose) (HPC)) 68 % of control.

For the molecule `Clc1cc(Cl)c(C[N+]23CN4CN(CN(C4)C2)C3)cc1Cl`, the T/C (dose: 37.5 mg/kg/injection, schedule: Q04DX004 (sc), vehicle: saline with Tween-80) was 85 % of control; the T/C under setting [3] is 95 % of control; the T/C under setting [4] was 68 % of control.

In the case of `C=CCNc1ccc(C)cc1`, the T/C was 105 % of control (dose: 50.0 mg/kg/injection, schedule: Q01DX010 (sc), vehicle: Klucel (hydroxypropylcellulose) (HPC)) and 86 % of control (dose: 200.0 mg/kg/injection, schedule: Q01DX010 (sc), vehicle: Klucel (hydroxypropylcellulose) (HPC)).

For the molecule `CC1=CC2c3cccc4[nH]cc(c34)CC2N(C)C1` (stereo not drawn), the T/C is 85 % of control (dose: 12.5 mg/kg/injection, schedule: Q04DX004 (sc), vehicle: suspension in saline); 61 % of control (dose: 25.0 mg/kg/injection, schedule: Q04DX004 (sc), vehicle: suspension in saline); 90 % of control (dose: 50.0 mg/kg/injection, schedule: Q04DX004 (sc), vehicle: suspension in saline).

With `CNC(=O)c1cccc2c(Nc3ccc(NS(C)(=O)=O)cc3OC)c3cccc(C)c3nc12`, the T/C (dose: 50.0 mg/kg/injection, schedule: Q04DX004 (sc), vehicle: other) is 72 % of control and the T/C (dose: 100.0 mg/kg/injection, schedule: Q04DX004 (sc), vehicle: other) is 39 % of control.

`ClCC[Se](Cl)(Cl)c1ccccc1`: the T/C runs as follows: (dose: 12.5 mg/kg/injection, schedule: Q04DX004 (sc), vehicle: saline) 154 % of control; (dose: 50.0 mg/kg/injection, schedule: Q04DX004 (sc), vehicle: saline) 100 % of control.

Take `C(C#CCN1CCOCC1)#CCN1CCOCC1`: the T/C is, setting by setting: (dose: 600.0 mg/kg/injection, schedule: Q04DX004 (sc), vehicle: Klucel (hydroxypropylcellulose) (HPC)) 100 % of control; (dose: 1200.0 mg/kg/injection, schedule: Q04DX004 (sc), vehicle: Klucel (hydroxypropylcellulose) (HPC)) 72 % of control; (dose: 2400.0 mg/kg/injection, schedule: Q04DX004 (sc), vehicle: Klucel (hydroxypropylcellulose) (HPC)) 68 % of control.

For `C1CCC2OCCOCCOC3CCCCC3OCCOCCOC2C1` (stereo not drawn), the T/C is, setting by setting: under setting [1], 89 % of control; under setting [2], 89 % of control.

Regarding `O/N=C/c1ccccc1O.O/N=C/c1ccccc1O.[Cu]`, the T/C (dose: 25.0 mg/kg/injection, schedule: Q04DX004 (sc), vehicle: saline with Tween-80) is 76 % of control; the T/C (dose: 50.0 mg/kg/injection, schedule: Q04DX004 (sc), vehicle: saline with Tween-80) is 39 % of control; the T/C (dose: 100.0 mg/kg/injection, schedule: Q04DX004 (sc), vehicle: saline with Tween-80) is 43 % of control; the T/C (dose: 200.0 mg/kg/injection, schedule: Q04DX004 (sc), vehicle: saline with Tween-80) is 61 % of control.

As to `COc1ccc2cc1Oc1ccc(cc1)C[C@H]1c3cc(c(OC)cc3CCN1C)Oc1c(OC)c(OC)cc3c1[C@H](C2)N(C)CC3`, the T/C (dose: 100.0 mg/kg/injection, schedule: Q01DX010 (sc), vehicle: saline with Tween-80) was 102 % of control; the T/C (dose: 200.0 mg/kg/injection, schedule: Q01DX010 (sc), vehicle: saline with Tween-80) is 33 % of control; the T/C (dose: 400.0 mg/kg/injection, schedule: Q01DX010 (sc), vehicle: saline with Tween-80) is 28 % of control; the T/C (dose: 800.0 mg/kg/injection, schedule: Q01DX010 (sc), vehicle: saline with Tween-80) is 27 % of control.

As for `CCC[CH2][Sn]1([CH2]CCC)[O]C2C(CO)OC(n3ccc(N)nc3=O)C2[O]1` (stereo not drawn), the T/C is 27 % of control (dose: 3.0 mg/kg/injection, schedule: Q04DX004 (sc), vehicle: Klucel (hydroxypropylcellulose) (HPC)); 85 % of control (dose: 6.0 mg/kg/injection, schedule: Q04DX004 (sc), vehicle: Klucel (hydroxypropylcellulose) (HPC)); 109 % of control (dose: 12.0 mg/kg/injection, schedule: Q04DX004 (sc), vehicle: Klucel (hydroxypropylcellulose) (HPC)); 76 % of control (dose: 24.0 mg/kg/injection, schedule: Q04DX004 (sc), vehicle: Klucel (hydroxypropylcellulose) (HPC)).

Consider `O=[n+]1c2ccccc2n([O-])c2ccccc21.[Cl][Ni][Cl]`, for which the T/C under setting [3] is 92 % of control and the T/C under setting [4] is 89 % of control.

For the molecule `CS(=O)(=O)CS(=O)(=O)OCCCl`, the T/C was 363 % of control (dose: 37.5 mg/kg/injection, schedule: Q04DX004 (sc), vehicle: suspension in saline); 187 % of control (dose: 75.0 mg/kg/injection, schedule: Q04DX004 (sc), vehicle: suspension in saline); 150 % of control (dose: 150.0 mg/kg/injection, schedule: Q04DX004 (sc), vehicle: suspension in saline).

As for `Oc1cc2ccccc2c(-c2c(O)c(O)cc3ccccc23)c1O`, the T/C is, setting by setting: (dose: 225.0 mg/kg/injection, schedule: Q04DX004 (sc), vehicle: saline with Tween-80) 101 % of control; (dose: 450.0 mg/kg/injection, schedule: Q04DX004 (sc), vehicle: saline with Tween-80) 55 % of control; (dose: 900.0 mg/kg/injection, schedule: Q04DX004 (sc), vehicle: saline with Tween-80) 86 % of control; (dose: 1200.0 mg/kg/injection, schedule: Q04DX004 (sc), vehicle: saline with Tween-80) 120 % of control; (dose: 1800.0 mg/kg/injection, schedule: Q04DX004 (sc), vehicle: saline with Tween-80) 28 % of control; (dose: 2400.0 mg/kg/injection, schedule: Q04DX004 (sc), vehicle: saline with Tween-80) 94 % of control.

As to `O=C(O)C(O)C(O)C1[O][Sb][O]C1C(=O)O` (stereo not drawn), the T/C by setting is: (dose: 37.5 mg/kg/injection, schedule: Q04DX004 (sc), vehicle: saline) 100 % of control; (dose: 75.0 mg/kg/injection, schedule: Q04DX004 (sc), vehicle: saline) 73 % of control; (dose: 150.0 mg/kg/injection, schedule: Q04DX004 (sc), vehicle: saline) 93 % of control.

`CNC(=O)OCc1c(COC(=O)NC)c(-c2ccccc2)n(C)c1-c1ccccc1`: the T/C (dose: 50.0 mg/kg/injection, schedule: Q04DX004 (sc), vehicle: distilled water + Tween-80) is 44 % of control; the T/C (dose: 200.0 mg/kg/injection, schedule: Q04DX004 (sc), vehicle: distilled water + Tween-80) was 68 % of control; the T/C (dose: 400.0 mg/kg/injection, schedule: Q04DX004 (sc), vehicle: distilled water + Tween-80) was 104 % of control.

Consider `S=P(N1CC1)(N1CC1)N1CC1`, for which the T/C is, setting by setting: (dose: 1.0 mg/kg/injection, schedule: Q01DX010 (sc), vehicle: saline) 34 % of control; (dose: 2.0 mg/kg/injection, schedule: Q01DX010 (sc), vehicle: saline) 80 % of control.
